The text below walks through data of patent US20230278972A1, “SUBSTITUTED HALOALKYL SULFONANILIDE HERBICIDES” (FMC Corporation, priority 2020, published 2023).

The structures appear in SMILES notation.

What all share (type): in vivo
Assay [1] deals with blackgrass (Alopecurus myosuroides). Nature of the assay: Test A1 preemergence, blackgrass. In outline:
(§1)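 Plants grown in pots of loam/sand mix; preemergence = soil-directed spray on seeded pots, postemergence = spray at 1–2 leaves, height 2–10 cm; test chemicals formulated in non-phytotoxic solvent with surfactant.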

Assay [2] concerns ducksalad (Heteranthera limosa). Nature of the assay: Test B1 flooded paddy test, ducksalad. The conditions noted are these: 250 g ai/ha, Flood, applied to paddy water, 2-leaf stage, visually evaluated after 10 to 14 days. An excerpt:
A dash (-) response means no test result.

For assay [3], the system named is Ryegrass, Italian (Italian ryegrass, Lolium multiflorum). Kind of assay: Test A1 postemergence, Ryegrass, Italian. The note with it: Postemergence. In outline: (§2)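 Both timings started from seed in a loam-sand blend. Preemergence pots got a directed soil application immediately; postemergence pots were sprayed when seedlings had one or two leaves and stood 2–10 cm. Each compound was prepared in a non-phytotoxic solvent plus surfactant.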

In assay [4] the test system is galium (catchweed bedstraw, Galium aparine). Nature of the assay: Test A1 postemergence, galium. The conditions noted are these: Postemergence. An outline of the steps: as §2
For assay [5], the system named is kochia (Bassia scoparia). Kind of assay: Test A1 preemergence, kochia. An outline of the steps: as §1
Assay [6] deals with Oat, Wild (wild oat, Avena fatua). Kind of assay: Test A1 postemergence, Oat, Wild. The note with it: Postemergence. In outline: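 Seeds were first planted into a blend of loam soil and sand and given a preemergence directed soil spray. In parallel, pots of the same soil were sown for postemergence application once plants reached 2 to 10 cm and the one- to two-leaf stage. Both used surfactant-containing non-phytotoxic solvent formulations.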

[7] abbreviates: 31 g ai/ha, 0 to 100 scale (0 no effect, 100 complete control).
The mark [8] stands for this setting: 125 g ai/ha, 0 to 100 scale, 0 no effect, 100 complete control.
The mark [9] stands for this setting: 31 g ai/ha, 0 to 100 scale (0 no effect, 100 complete control), 10 days.

Take `CCOC1CC(c2cc(NS(=O)(=O)C(F)(F)F)c(C)cc2C)=NO1` (stereo not shown) [Compound 318]: the “Plant response rating, Blackgrass” value is recorded as 30 in assay [1] (setting [7]) and 70 in assay [1] (setting [8]). The “Plant response rating, Ducksalad (0 to 100 scale, 0 is no effect, 100 is complete control)” value in assay [2] came out at 80. The “Plant response rating, Ryegrass, Italian” value in assay [3] (setting [9]) amounted to 10; in assay [3] (125 g ai/ha, 0 to 100 scale) it was 70. The “Plant response rating, Galium” value in assay [4] (setting [9]) is 60; in assay [4] (125 g ai/ha, 0 to 100 scale), 60. Besides, the entries for the “Plant response rating, Kochia” value in assay [5] (setting [7]) and in assay [5] (setting [8]) were 60 and 70, respectively. The “Plant response rating, Oat, Wild” value in assay [6] (setting [9]) is on record as 0; in assay [6] (125 g ai/ha, 0 to 100 scale), 10.
As to `Cc1c(C(=O)N(C)C)cc(NS(=O)(=O)C(F)(F)F)c(Cl)c1F` [Compound 320], the “Plant response rating, Blackgrass” value in assay [1] (setting [7]) and in assay [1] (setting [8]) was 0 each time. The “Plant response rating, Ducksalad (0 to 100 scale, 0 is no effect, 100 is complete control)” value in assay [2] stood at 60. Also, the “Plant response rating, Ryegrass, Italian” value in assay [3] (setting [9]) was 0; in assay [3] (125 g ai/ha, 0 to 100 scale) it was 40. Also, the “Plant response rating, Galium” value in assay [4] (setting [9]) came to 70; in assay [4] (125 g ai/ha, 0 to 100 scale), 90. Moreover, the “Plant response rating, Kochia” value is reported as 20 in assay [5] (setting [7]) and 50 in assay [5] (setting [8]). The “Plant response rating, Oat, Wild” value in assay [6] (setting [9]) is 0; in assay [6] (125 g ai/ha, 0 to 100 scale), 0.
As to `Cc1c(C(=O)N2CCOCC2)cc(NS(=O)(=O)C(F)(F)F)c(Cl)c1F` [Compound 321], the results for the “Plant response rating, Blackgrass” value in assay [1] (setting [7]) and in assay [1] (setting [8]) were 0 and 70, respectively. For the same molecule, in assay [2], the “Plant response rating, Ducksalad (0 to 100 scale, 0 is no effect, 100 is complete control)” value came out at 95. Also, the “Plant response rating, Ryegrass, Italian” value in assay [3] (setting [9]) is 30; in assay [3] (125 g ai/ha, 0 to 100 scale), 40. Besides, the “Plant response rating, Galium” value in assay [4] (setting [9]) was determined as 100; in assay [4] (125 g ai/ha, 0 to 100 scale), 100. The “Plant response rating, Kochia” value in assay [5] (setting [7]) is 80; in assay [5] (setting [8]), 90. Further, the “Plant response rating, Oat, Wild” value worked out at 0 in assay [6] (setting [9]) and 10 in assay [6] (125 g ai/ha, 0 to 100 scale).
For `Cc1cc(C)c(C2=NOC(OCC(C)C)C2)cc1NS(=O)(=O)C(F)(F)F` (stereo not shown) [Compound 322], the results for the “Plant response rating, Blackgrass” value in assay [1] (setting [7]) and in assay [1] (setting [8]) were 0 and 70, respectively. Also, in assay [2], the “Plant response rating, Ducksalad (0 to 100 scale, 0 is no effect, 100 is complete control)” value worked out at 0. The “Plant response rating, Ryegrass, Italian” value came to 0 in assay [3] (setting [9]) and 40 in assay [3] (125 g ai/ha, 0 to 100 scale). Besides, the “Plant response rating, Galium” value came out at 40 in assay [4] (setting [9]) and 70 in assay [4] (125 g ai/ha, 0 to 100 scale). Further, the “Plant response rating, Kochia” value in assay [5] (setting [7]) is given as 0; in assay [5] (setting [8]), 20. In addition, the “Plant response rating, Oat, Wild” value in assay [6] (setting [9]) is on record as 0; in assay [6] (125 g ai/ha, 0 to 100 scale), 0.
`CCCCOC1CC(c2cc(NS(=O)(=O)C(F)(F)F)c(C)cc2C)=NO1` (stereo not shown) [Compound 323]: the “Plant response rating, Blackgrass” value in assay [1] (setting [7]) is recorded as 0; in assay [1] (setting [8]), 30. Also, the “Plant response rating, Ducksalad (0 to 100 scale, 0 is no effect, 100 is complete control)” value in assay [2] was 0. The “Plant response rating, Ryegrass, Italian” value in assay [3] (setting [9]) is listed as 0; in assay [3] (125 g ai/ha, 0 to 100 scale), 20. Also, the “Plant response rating, Galium” value in assay [4] (setting [9]) came to 50; in assay [4] (125 g ai/ha, 0 to 100 scale), 80. Besides, the “Plant response rating, Kochia” value was found to be 20 in assay [5] (setting [7]) and 90 in assay [5] (setting [8]). The “Plant response rating, Oat, Wild” value came to 0 in assay [6] (setting [9]) and 0 in assay [6] (125 g ai/ha, 0 to 100 scale).
For the molecule `Cc1c(C(=O)N2CCOCC2)cc(N(COC(=O)C(C)(C)C)S(=O)(=O)C(F)(F)F)c(C)c1C` [Compound 324, [[(Trifluoromethyl)sulfonyl][2,3,4-trimethyl-5-(4-morpholinylcarbonyl)phenyl]amino]methyl 2,2-dimethylpropanoate], the “Plant response rating, Blackgrass” value in assay [1] (setting [7]) worked out at 20; in assay [1] (setting [8]), 30. Moreover, the “Plant response rating, Ducksalad (0 to 100 scale, 0 is no effect, 100 is complete control)” value in assay [2] worked out at 80. For the same molecule, the “Plant response rating, Ryegrass, Italian” value in assay [3] (setting [9]) turned out to be 0; in assay [3] (125 g ai/ha, 0 to 100 scale), 30. In addition, the “Plant response rating, Galium” value worked out at 50 in assay [4] (setting [9]) and 80 in assay [4] (125 g ai/ha, 0 to 100 scale). In addition, the “Plant response rating, Kochia” value in assay [5] (setting [7]) turned out to be 60; in assay [5] (setting [8]), 90. For the same molecule, the “Plant response rating, Oat, Wild” value was 0 in assay [6] (setting [9]) and 0 in assay [6] (125 g ai/ha, 0 to 100 scale).
Regarding `CCOC(=O)N(c1cc(C(=O)N2CCOCC2)c(C)c(C)c1C)S(=O)(=O)C(F)(F)F` [Compound 325], the “Plant response rating, Blackgrass” value in assay [1] (setting [7]) was found to be 0; in assay [1] (setting [8]), 40. Also, in assay [2], the “Plant response rating, Ducksalad (0 to 100 scale, 0 is no effect, 100 is complete control)” value came out at 95. In addition, the “Plant response rating, Ryegrass, Italian” value in assay [3] (setting [9]) turned out to be 0; in assay [3] (125 g ai/ha, 0 to 100 scale) it was 60. In addition, the “Plant response rating, Galium” value is listed as 40 in assay [4] (setting [9]) and 90 in assay [4] (125 g ai/ha, 0 to 100 scale). Moreover, the “Plant response rating, Kochia” value in assay [5] (setting [7]) is recorded as 20; in assay [5] (setting [8]), 70. Further, the “Plant response rating, Oat, Wild” value is listed as 0 in assay [6] (setting [9]) and 10 in assay [6] (125 g ai/ha, 0 to 100 scale).
On to `Cc1c(NS(=O)(=O)C(F)(F)F)cc(C(=O)N2CCCCC2)c(C)c1C` [Compound 326], for which the “Plant response rating, Blackgrass” value in assay [1] (setting [7]) and in assay [1] (setting [8]) was 0 each time. Further, the “Plant response rating, Ducksalad (0 to 100 scale, 0 is no effect, 100 is complete control)” value in assay [2] is 85. The “Plant response rating, Ryegrass, Italian” value in assay [3] (setting [9]) is given as 0; in assay [3] (125 g ai/ha, 0 to 100 scale), 30. For the same molecule, the “Plant response rating, Galium” value in assay [4] (setting [9]) came out at 70; in assay [4] (125 g ai/ha, 0 to 100 scale), 100. Further, the “Plant response rating, Kochia” value in assay [5] (setting [7]) and in assay [5] (setting [8]) was 80 in each case. For the same molecule, the “Plant response rating, Oat, Wild” value stood at 0 in assay [6] (setting [9]) and 0 in assay [6] (125 g ai/ha, 0 to 100 scale).
